{"source": "ChEMBL document CHEMBL4804286", "about": "“3-amino-4-(4-(4 (dimethylcarbamoyl) phenyl)-1,4-diazepan-1-yl) thieno [2,3-b] pyridine-2-carboxamide for use in cancer therapy and formulations comprising the same” (2020)", "key": {"[1]": {"test_system": "Receptor-type tyrosine-protein kinase FLT3 (Homo sapiens), P36888 [D835H]", "assay": "Inhibition of human FLT3 D835H mutant assessed as percent of control at 2000 nM by KINOMEscan assay relative to control", "parameters": "scale not given: the % may be the effect or the level left"}, "[2]": {"molecular_target": "Ephrin type-A receptor 3 (Homo sapiens) (UniProt P29320)", "assay": "Inhibition of human EPHA3 assessed as percent of control at 2000 nM by KINOMEscan assay relative to control", "parameters": "scale not given: the % may be the effect or the level left"}, "[3]": {"molecular_target": "Myosin light chain kinase family member 4 (Homo sapiens) (UniProt Q86YV6)", "assay": "Inhibition of human MYLK4 assessed as percent of control at 2000 nM by KINOMEscan assay relative to control", "parameters": "scale not given: the % may be the effect or the level left"}, "[4]": {"test_system": "Mast/stem cell growth factor receptor Kit (Homo sapiens), P10721 [D816H]", "assay": "Inhibition of human KIT D816H mutant assessed as percent of control at 2000 nM by KINOMEscan assay relative to control", "parameters": "scale not given: the % may be the effect or the level left"}, "[5]": {"molecular_target": "Glycogen synthase kinase-3 alpha (Homo sapiens) (UniProt P49840)", "conditions": "INHIBITOR, dose 2000.0 nM", "description": "Inhibition of human GSK3A at 2000 nM by KINOMEscan assay"}, "[6]": {"molecular_target": "Serine/threonine-protein kinase STK11 (Homo sapiens) (UniProt Q15831)", "assay": "Inhibition of human LKB1 assessed as percent of control at 2000 nM by KINOMEscan assay relative to control", "parameters": "scale not given: the % may be the effect or the level left"}, "[7]": {"molecular_target": "cAMP-dependent protein kinase catalytic subunit alpha (Homo sapiens) (UniProt P17612)", "assay": "Inhibition of human PKAC-alpha assessed as percent of control at 2000 nM by KINOMEscan assay relative to control", "parameters": "scale not given: the % may be the effect or the level left"}, "[8]": {"molecular_target": "Bone morphogenetic protein receptor type-1A (Homo sapiens) (UniProt P36894)", "sequence (P36894 whole entry)": "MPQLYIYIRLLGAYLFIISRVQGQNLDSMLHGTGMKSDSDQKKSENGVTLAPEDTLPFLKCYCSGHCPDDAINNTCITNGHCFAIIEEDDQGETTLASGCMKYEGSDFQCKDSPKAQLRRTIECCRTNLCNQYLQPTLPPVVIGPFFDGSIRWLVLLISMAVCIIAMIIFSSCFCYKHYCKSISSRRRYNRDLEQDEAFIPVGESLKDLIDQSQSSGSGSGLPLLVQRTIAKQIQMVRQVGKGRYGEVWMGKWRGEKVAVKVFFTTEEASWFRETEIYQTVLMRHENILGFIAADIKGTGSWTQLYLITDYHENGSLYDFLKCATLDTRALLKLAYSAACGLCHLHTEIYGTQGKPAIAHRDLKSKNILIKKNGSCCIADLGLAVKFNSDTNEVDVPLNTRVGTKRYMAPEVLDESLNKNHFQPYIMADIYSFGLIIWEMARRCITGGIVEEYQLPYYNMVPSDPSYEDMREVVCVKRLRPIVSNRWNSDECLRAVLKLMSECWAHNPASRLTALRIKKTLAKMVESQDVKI", "assay": "Inhibition of human BMPR1A assessed as percent of control at 2000 nM by KINOMEscan assay relative to control", "parameters": "scale not given: the % may be the effect or the level left"}, "[9]": {"molecular_target": "Serine/threonine-protein kinase WNK3 (Homo sapiens) (UniProt Q9BYP7)", "assay": "Inhibition of human WNK3 assessed as percent of control at 2000 nM by KINOMEscan assay relative to control", "parameters": "scale not given: the % may be the effect or the level left"}, "[10]": {"test_system": "Proto-oncogene tyrosine-protein kinase receptor Ret (Homo sapiens), P07949 [M918T]", "assay": "Inhibition of human RET M918T mutant assessed as percent of control at 2000 nM by KINOMEscan assay relative to control", "parameters": "scale not given: the % may be the effect or the level left"}, "[11]": {"molecular_target": "Protein odd-skipped-related 1 (Homo sapiens) (UniProt Q8TAX0)", "assay": "Inhibition of human OSR1 assessed as percent of control at 2000 nM by KINOMEscan assay relative to control", "parameters": "scale not given: the % may be the effect or the level left"}, "[12]": {"molecular_target": "cAMP-dependent protein kinase catalytic subunit PRKX (Homo sapiens) (UniProt P51817)", "assay": "Inhibition of human PRKX assessed as percent of control at 2000 nM by KINOMEscan assay relative to control", "parameters": "scale not given: the % may be the effect or the level left"}, "[13]": {"molecular_target": "Serine/threonine-protein kinase 25 (Homo sapiens) (UniProt O00506)", "assay": "Inhibition of human YSK1 assessed as percent of control at 2000 nM by KINOMEscan assay relative to control", "parameters": "scale not given: the % may be the effect or the level left"}, "[14]": {"test_system": "Myc-CaP", "assay": "Antiproliferative activity against murine castration-resistant Myc-CaP cells at 1 uM assessed as growth inhibition relative to control", "assay_type": "functional", "conditions": "Mus musculus"}, "[15]": {"molecular_target": "Activin receptor type-1B (Homo sapiens) (UniProt P36896)", "assay": "Inhibition of human ACVR1B assessed as percent of control at 2000 nM by KINOMEscan assay relative to control", "parameters": "scale not given: the % may be the effect or the level left"}, "[16]": {"test_system": "Phosphatidylinositol 4,5-bisphosphate 3-kinase catalytic subunit alpha isoform (Homo sapiens), P42336 [H1047L]", "assay": "Inhibition of human PIK3CA H1047L mutant assessed as percent of control at 2000 nM by KINOMEscan assay relative to control", "parameters": "scale not given: the % may be the effect or the level left"}, "[17]": {"molecular_target": "Serine/threonine-protein kinase N1 (Homo sapiens) (UniProt Q16512)", "assay": "Inhibition of human PKN1 assessed as percent of control at 2000 nM by KINOMEscan assay relative to control", "parameters": "scale not given: the % may be the effect or the level left"}, "[18]": {"molecular_target": "LIM domain kinase 2 (Homo sapiens) (UniProt P53671)", "sequence (P53671 whole entry, looked up, the tested form may be a part)": "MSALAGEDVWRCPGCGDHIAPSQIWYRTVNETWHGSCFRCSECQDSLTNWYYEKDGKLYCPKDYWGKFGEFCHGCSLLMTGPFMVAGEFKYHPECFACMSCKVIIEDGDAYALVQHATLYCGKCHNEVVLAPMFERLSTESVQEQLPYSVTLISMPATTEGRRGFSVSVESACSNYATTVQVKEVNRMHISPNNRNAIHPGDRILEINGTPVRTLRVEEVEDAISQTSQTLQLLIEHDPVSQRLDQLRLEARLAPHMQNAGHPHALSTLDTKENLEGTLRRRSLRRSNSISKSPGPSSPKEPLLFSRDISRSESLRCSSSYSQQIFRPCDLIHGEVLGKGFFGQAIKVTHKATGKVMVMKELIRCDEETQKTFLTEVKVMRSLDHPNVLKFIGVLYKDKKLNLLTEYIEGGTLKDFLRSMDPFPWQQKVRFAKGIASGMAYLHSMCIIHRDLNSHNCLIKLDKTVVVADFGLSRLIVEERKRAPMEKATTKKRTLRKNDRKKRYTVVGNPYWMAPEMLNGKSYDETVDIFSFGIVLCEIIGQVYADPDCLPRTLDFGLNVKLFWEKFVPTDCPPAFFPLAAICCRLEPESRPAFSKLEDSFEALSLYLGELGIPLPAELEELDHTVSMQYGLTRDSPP", "assay": "Inhibition of human LIMK2 assessed as percent of control at 2000 nM by KINOMEscan assay relative to control", "parameters": "scale not given: the % may be the effect or the level left"}, "[19]": {"molecular_target": "cGMP-dependent protein kinase 1 (Homo sapiens) (UniProt Q13976)", "sequence (Q13976 whole entry)": "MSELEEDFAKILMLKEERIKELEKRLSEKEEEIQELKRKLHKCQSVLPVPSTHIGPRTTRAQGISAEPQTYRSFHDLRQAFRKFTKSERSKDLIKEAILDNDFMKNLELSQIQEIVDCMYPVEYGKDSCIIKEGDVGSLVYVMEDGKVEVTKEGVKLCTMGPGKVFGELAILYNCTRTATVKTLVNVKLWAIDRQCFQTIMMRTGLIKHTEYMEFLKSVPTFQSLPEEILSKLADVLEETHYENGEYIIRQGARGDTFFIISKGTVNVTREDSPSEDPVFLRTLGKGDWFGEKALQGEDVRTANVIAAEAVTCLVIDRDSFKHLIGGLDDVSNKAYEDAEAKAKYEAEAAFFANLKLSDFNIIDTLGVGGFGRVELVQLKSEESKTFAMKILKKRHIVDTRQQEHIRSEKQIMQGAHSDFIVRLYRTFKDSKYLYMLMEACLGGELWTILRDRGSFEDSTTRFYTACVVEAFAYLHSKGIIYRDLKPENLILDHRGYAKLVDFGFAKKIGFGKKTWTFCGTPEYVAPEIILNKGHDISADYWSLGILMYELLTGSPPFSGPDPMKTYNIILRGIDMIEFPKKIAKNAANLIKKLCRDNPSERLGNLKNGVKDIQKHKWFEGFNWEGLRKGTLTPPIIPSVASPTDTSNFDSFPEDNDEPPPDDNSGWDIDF", "assay": "Inhibition of human PRKG1 assessed as percent of control at 2000 nM by KINOMEscan assay relative to control", "parameters": "scale not given: the % may be the effect or the level left"}, "[20]": {"molecular_target": "Serine/threonine-protein kinase TBK1 (Homo sapiens) (UniProt Q9UHD2)", "assay": "Inhibition of human TBK1 assessed as percent of control at 2000 nM by KINOMEscan assay relative to control", "parameters": "scale not given: the % may be the effect or the level left"}, "[21]": {"molecular_target": "Muscle, skeletal receptor tyrosine-protein kinase (Homo sapiens) (UniProt O15146)", "assay": "Inhibition of human MUSK assessed as percent of control at 2000 nM by KINOMEscan assay relative to control", "parameters": "scale not given: the % may be the effect or the level left"}, "[22]": {"molecular_target": "Vascular endothelial growth factor receptor 3 (Homo sapiens) (UniProt P35916)", "assay": "Inhibition of human FLT4 assessed as percent of control at 2000 nM by KINOMEscan assay relative to control", "parameters": "scale not given: the % may be the effect or the level left"}, "[23]": {"molecular_target": "Inhibitor of nuclear factor kappa-B kinase subunit beta (Homo sapiens) (UniProt O14920)", "assay": "Inhibition of human IKK-beta assessed as percent of control at 2000 nM by KINOMEscan assay relative to control", "parameters": "scale not given: the % may be the effect or the level left"}, "[24]": {"molecular_target": "Protein-tyrosine kinase 2-beta (Homo sapiens) (UniProt Q14289)", "assay": "Inhibition of human PYK2 assessed as percent of control at 2000 nM by KINOMEscan assay relative to control", "parameters": "scale not given: the % may be the effect or the level left"}, "[25]": {"molecular_target": "Beta-adrenergic receptor kinase 1 (Homo sapiens) (UniProt P25098)", "assay": "Inhibition of human GRK2 assessed as percent of control at 2000 nM by KINOMEscan assay relative to control", "parameters": "scale not given: the % may be the effect or the level left"}, "[26]": {"molecular_target": "BMP-2-inducible protein kinase (Homo sapiens) (UniProt Q9NSY1)", "sequence (Q9NSY1 whole entry, looked up)": "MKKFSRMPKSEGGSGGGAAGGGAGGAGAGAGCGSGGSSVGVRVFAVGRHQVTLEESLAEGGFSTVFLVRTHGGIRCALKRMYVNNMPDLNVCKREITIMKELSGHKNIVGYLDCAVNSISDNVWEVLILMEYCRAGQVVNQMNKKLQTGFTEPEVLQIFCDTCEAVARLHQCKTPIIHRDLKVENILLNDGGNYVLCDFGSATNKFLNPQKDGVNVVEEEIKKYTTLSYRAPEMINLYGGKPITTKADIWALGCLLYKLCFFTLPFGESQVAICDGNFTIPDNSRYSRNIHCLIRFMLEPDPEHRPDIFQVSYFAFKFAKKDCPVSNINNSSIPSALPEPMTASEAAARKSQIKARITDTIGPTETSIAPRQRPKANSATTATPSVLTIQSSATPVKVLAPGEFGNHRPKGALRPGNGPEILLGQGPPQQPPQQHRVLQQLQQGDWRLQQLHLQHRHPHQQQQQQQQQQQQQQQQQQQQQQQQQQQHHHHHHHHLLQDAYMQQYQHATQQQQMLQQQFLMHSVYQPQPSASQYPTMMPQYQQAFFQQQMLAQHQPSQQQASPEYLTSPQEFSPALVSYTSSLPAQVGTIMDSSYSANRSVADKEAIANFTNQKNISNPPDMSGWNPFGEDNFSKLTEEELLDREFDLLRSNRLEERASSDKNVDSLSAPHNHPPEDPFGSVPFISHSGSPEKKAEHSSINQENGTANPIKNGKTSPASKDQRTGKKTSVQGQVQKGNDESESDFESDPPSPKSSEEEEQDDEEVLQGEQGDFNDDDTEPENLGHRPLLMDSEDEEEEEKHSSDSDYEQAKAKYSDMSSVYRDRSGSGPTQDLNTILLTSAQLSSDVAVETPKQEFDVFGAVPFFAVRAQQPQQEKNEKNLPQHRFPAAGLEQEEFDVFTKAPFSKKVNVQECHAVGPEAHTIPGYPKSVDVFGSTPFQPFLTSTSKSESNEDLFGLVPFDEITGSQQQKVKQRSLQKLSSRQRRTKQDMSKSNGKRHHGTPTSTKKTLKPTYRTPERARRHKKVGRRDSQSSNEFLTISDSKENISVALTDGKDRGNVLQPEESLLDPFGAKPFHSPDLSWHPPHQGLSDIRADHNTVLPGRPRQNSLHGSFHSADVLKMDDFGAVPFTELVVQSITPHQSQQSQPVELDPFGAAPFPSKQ", "assay": "Inhibition of human BIKE assessed as percent of control at 2000 nM by KINOMEscan assay relative to control", "parameters": "scale not given: the % may be the effect or the level left"}, "[27]": {"molecular_target": "CDK4/Cyclin D3 (Homo sapiens) (UniProt P11802+P30281)", "assay": "Inhibition of human CDK4/cyclin D3 assessed as percent of control at 2000 nM by KINOMEscan assay relative to control", "assay_type": "protein-complex assay", "parameters": "scale not given: the % may be the effect or the level left"}, "[28]": {"molecular_target": "Mitogen-activated protein kinase kinase kinase 9 (Homo sapiens) (UniProt P80192)", "sequence (P80192 whole entry, looked up)": "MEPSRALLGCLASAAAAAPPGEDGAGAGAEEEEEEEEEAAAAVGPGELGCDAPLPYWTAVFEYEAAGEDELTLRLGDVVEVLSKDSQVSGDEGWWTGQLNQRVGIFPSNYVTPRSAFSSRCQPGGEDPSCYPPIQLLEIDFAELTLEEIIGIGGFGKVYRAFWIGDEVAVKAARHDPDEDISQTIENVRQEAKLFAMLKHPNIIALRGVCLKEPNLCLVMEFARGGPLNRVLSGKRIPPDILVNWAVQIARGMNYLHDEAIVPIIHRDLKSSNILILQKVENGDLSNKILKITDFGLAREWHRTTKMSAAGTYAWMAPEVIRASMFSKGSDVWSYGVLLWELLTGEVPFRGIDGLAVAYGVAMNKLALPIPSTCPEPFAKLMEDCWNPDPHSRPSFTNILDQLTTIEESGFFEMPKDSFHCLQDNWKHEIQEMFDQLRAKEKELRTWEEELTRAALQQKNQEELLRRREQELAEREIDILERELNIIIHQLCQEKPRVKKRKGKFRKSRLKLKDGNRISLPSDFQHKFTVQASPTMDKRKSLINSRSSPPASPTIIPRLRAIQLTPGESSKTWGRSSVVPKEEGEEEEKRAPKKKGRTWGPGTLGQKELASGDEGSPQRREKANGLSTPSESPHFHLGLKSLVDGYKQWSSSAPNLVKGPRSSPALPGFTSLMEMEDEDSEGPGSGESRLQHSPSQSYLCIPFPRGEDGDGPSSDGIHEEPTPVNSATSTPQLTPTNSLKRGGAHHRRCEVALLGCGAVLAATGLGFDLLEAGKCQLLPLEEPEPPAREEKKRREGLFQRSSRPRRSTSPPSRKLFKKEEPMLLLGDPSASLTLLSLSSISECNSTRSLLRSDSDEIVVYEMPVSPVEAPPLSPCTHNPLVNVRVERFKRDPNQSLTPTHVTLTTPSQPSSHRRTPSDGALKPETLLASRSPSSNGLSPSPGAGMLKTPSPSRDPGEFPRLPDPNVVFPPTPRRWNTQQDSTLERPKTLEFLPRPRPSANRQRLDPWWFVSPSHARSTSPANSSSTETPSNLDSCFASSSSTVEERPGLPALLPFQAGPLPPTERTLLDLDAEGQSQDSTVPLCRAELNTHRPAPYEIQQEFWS", "assay": "Inhibition of human MLK1 assessed as percent of control at 2000 nM by KINOMEscan assay relative to control", "parameters": "scale not given: the % may be the effect or the level left"}, "[29]": {"molecular_target": "Serine/threonine-protein kinase Nek4 (Homo sapiens) (UniProt P51957)", "assay": "Inhibition of human NEK4 assessed as percent of control at 2000 nM by KINOMEscan assay relative to control", "parameters": "scale not given: the % may be the effect or the level left"}, "[30]": {"molecular_target": "Cyclin-dependent kinase 19 (Homo sapiens) (UniProt Q9BWU1)", "conditions": "INHIBITOR, dose 2000.0 nM", "description": "Inhibition of human CDK19 at 2000 nM by KINOMEscan assay"}, "[31]": {"test_system": "Myc-CaP", "assay": "Antiproliferative activity against murine castration-resistant Myc-CaP cells at 1 uM assessed as growth inhibition in presence of 5 uM enzalutamide relative to control", "assay_type": "functional", "conditions": "Mus musculus"}, "[32]": {"molecular_target": "Serine/threonine-protein kinase SIK2 (Homo sapiens) (UniProt Q9H0K1)", "sequence (Q9H0K1 whole entry, looked up)": "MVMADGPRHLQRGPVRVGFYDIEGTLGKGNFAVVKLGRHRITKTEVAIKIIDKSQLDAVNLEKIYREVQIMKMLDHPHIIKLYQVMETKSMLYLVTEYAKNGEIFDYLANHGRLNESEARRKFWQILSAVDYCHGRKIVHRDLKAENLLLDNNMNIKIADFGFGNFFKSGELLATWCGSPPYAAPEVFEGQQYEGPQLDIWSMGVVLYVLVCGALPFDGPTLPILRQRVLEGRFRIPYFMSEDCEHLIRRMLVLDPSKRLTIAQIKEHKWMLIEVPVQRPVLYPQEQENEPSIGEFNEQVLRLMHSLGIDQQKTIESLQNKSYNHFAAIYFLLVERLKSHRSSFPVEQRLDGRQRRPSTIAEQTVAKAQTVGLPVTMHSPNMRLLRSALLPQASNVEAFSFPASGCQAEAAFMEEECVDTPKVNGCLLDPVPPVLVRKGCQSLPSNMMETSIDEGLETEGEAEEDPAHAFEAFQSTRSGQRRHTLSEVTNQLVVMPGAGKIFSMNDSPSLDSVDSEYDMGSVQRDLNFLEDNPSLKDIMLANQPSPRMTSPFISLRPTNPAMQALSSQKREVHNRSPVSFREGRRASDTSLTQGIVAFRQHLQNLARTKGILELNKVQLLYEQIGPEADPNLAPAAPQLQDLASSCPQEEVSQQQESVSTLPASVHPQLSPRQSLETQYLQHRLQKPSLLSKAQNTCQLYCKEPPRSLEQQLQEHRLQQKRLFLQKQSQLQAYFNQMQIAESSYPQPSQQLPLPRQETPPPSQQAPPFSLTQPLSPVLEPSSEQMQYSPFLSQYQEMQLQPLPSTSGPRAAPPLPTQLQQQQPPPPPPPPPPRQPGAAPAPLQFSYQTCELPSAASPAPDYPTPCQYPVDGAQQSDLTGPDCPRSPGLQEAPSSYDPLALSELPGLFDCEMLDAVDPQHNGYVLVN", "assay": "Inhibition of human SIK2 assessed as percent of control at 2000 nM by KINOMEscan assay relative to control", "parameters": "scale not given: the % may be the effect or the level left"}}, "note": "Several values for one entry are separate records, joined by “and”; a condition that tells them apart may be missing. Equal values may be shown once. Activity calls are given as the source filed them. The rule behind the calls is not given here."}
{"smiles": "CN(C)C(=O)c1ccc(N2CCCN(c3ccnc4sc(C(N)=O)c(N)c34)CC2)cc1", "values": [{"measurement": "Activity", "setting": "[1]", "value": "63% and 76%"}, {"measurement": "Activity", "setting": "[2]", "value": "100% and 87%"}, {"measurement": "Activity", "setting": "[3]", "value": "100% and 94%"}, {"measurement": "Activity", "setting": "[4]", "value": "91% and 66%"}, {"measurement": "inhibition", "setting": "[5]", "value": "> 65", "unit": "%"}, {"measurement": "Activity", "setting": "[6]", "value": "100% and 87%"}, {"measurement": "Activity", "setting": "[7]", "value": "95% and 100%"}, {"measurement": "Activity", "setting": "[8]", "value": 100, "unit": "%"}, {"measurement": "Activity", "setting": "[9]", "value": "97% and 100%"}, {"measurement": "Activity", "setting": "[10]", "value": 98, "unit": "%"}, {"measurement": "Activity", "setting": "[11]", "value": "100% and 88%"}, {"measurement": "Activity", "setting": "[12]", "value": "94% and 95%"}, {"measurement": "Activity", "setting": "[13]", "value": "76% and 98%"}, {"measurement": "Activity", "setting": "[14]", "value": "Active"}, {"measurement": "Activity", "setting": "[15]", "value": "100% and 99%"}, {"measurement": "Activity", "setting": "[16]", "value": "94% and 80%"}, {"measurement": "Activity", "setting": "[17]", "value": "96% and 100%"}, {"measurement": "Activity", "setting": "[18]", "value": "91% and 98%"}, {"measurement": "Activity", "setting": "[19]", "value": "88% and 100%"}, {"measurement": "Activity", "setting": "[20]", "value": "99% and 97%"}, {"measurement": "Activity", "setting": "[21]", "value": "94% and 82%"}, {"measurement": "Activity", "setting": "[22]", "value": "92% and 98%"}, {"measurement": "Activity", "setting": "[23]", "value": "89% and 71%"}, {"measurement": "Activity", "setting": "[24]", "value": "97% and 84%"}, {"measurement": "Activity", "setting": "[25]", "value": "88% and 70%"}, {"measurement": "Activity", "setting": "[26]", "value": "100% and 96%"}, {"measurement": "Activity", "setting": "[27]", "value": "95% and 97%"}, {"measurement": "Activity", "setting": "[28]", "value": "95% and 92%"}, {"measurement": "Activity", "setting": "[29]", "value": "100% and 95%"}, {"measurement": "inhibition", "setting": "[30]", "value": "> 65", "unit": "%"}, {"measurement": "Activity", "setting": "[31]", "value": "Active"}, {"measurement": "Activity", "setting": "[32]", "value": "96% and 100%"}]}
